From patent US6987110B2, “Substituted pyrrolines as kinase inhibitors” (Janssen Pharmaceutica N.V., priority 2002, dated 2006)

Columns and labels:
Format in all cases: biochemical
[1] = biological target: T1, recombinant rabbit GSK-3β (Oryctolagus cuniculus, UniProt G1T8E2); assay: Glycogen Synthase Kinase-3 assay (PPI-2 phosphorylation); conditions: for IC50: PPI-2 substrate, 33P-ATP, 90 minutes at 30° C.
T1 construct: purchased New England Biolabs
Protocol: Compounds were tested for the ability to inhibit recombinant rabbit GSK-3β using the following protocol. The test compound was added to a reaction mixture containing Protein phosphatase inhibitor-2 (PPI-2) (Calbiochem) (45 ng), rabbit GSK-3β (New England Biolabs) (0.75 units) and ^33P-ATP (1 μCi) in 50 mM Tris-HCl (pH 8.0), 10 mM MgCl2, 0.1% BSA, 1 mM DTT and 100 μM Sodium Vanadate. The mixture was reacted for 90 minutes at 30° C. to allow phosphorylation of the PPI-2 protein and then the protein in the reaction was precipitated using 10% TCA. The precipitated protein was collected on filter plates (MultiScreen-DV/Millipore), which were subsequently washed. Finally, the radioactivity was quantified using a TopCount Scintillation Counter (Packard). […] Staurosporine or Valproate, known inhibitors of GSK-3β, were used as a positive control for screening.

PKC isoform γ = PKC isoform γ (Homo sapiens, UniProt P05129); assay: Protein Kinase C histone-based assay, PKC γ; conditions: histone III substrate, 30 μM ATP; error approximately within ±30 percent; read-out: PKC Activity, Gamma (IC50, Histone Based Assay)
Protocol: (§1) Compounds were evaluated for PKC selectivity using histone III as the substrate. The PKC isoforms α, β-II or γ were added to a reaction mixture that contained 20 mM HEPES, (pH 7.4), 940 μM CaCl2, 10 mM MgCl2, 1 mM EGTA. 100 μg/mL phosphatidylserine, 20 μg/mL diacylglycerol, 30 μM ATP, 1 μCi (^33P)ATP and 200 μg/mL histone III. The reaction was incubated for 10 min at 30° C. Reactions were terminated by TCA precipitation and spotting on Whatman P81 filters. Filters were washed in 75 mM phosphoric acid and the radioactivity quantified by liquid scintillation counting.

PKC isoform α = PKC isoform α (Homo sapiens, UniProt P17252); assay: Protein Kinase C histone-based assay, PKC α; conditions: histone III substrate, 30 μM ATP; error approximately within ±30 percent; read-out: PKC Activity, Alpha (IC50, Histone Based Assay)
Protocol: as §1

PKC isoform β-II = PKC isoform β-II (Homo sapiens, UniProt P05771); assay: Protein Kinase C histone-based assay, PKC β-II; conditions: histone III substrate, 30 μM ATP; error approximately within ±30 percent; read-out: PKC Activity, Beta II (IC50, Histone Based Assay)
PKC isoform β-II, sequence (P05771 1-673 isoform P05771-2): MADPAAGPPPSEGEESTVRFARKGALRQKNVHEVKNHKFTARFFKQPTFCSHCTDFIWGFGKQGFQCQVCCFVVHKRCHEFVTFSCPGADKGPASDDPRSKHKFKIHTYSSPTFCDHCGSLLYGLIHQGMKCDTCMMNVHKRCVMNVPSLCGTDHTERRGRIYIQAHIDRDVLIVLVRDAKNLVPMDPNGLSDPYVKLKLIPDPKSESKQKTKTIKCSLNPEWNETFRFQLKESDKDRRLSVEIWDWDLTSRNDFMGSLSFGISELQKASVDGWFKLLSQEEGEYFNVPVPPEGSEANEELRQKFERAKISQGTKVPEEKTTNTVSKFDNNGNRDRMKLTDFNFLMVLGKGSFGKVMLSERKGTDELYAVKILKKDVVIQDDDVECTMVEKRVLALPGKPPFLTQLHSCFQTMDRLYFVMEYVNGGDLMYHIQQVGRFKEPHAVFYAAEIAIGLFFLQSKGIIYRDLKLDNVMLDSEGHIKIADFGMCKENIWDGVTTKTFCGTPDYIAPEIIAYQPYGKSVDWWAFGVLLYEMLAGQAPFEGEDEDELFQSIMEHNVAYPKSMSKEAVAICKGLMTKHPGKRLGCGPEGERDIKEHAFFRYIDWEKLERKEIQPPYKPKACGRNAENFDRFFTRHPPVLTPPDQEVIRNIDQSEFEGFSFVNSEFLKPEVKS
Protocol: as §1

T1 sequence (G1T8E2 1-432): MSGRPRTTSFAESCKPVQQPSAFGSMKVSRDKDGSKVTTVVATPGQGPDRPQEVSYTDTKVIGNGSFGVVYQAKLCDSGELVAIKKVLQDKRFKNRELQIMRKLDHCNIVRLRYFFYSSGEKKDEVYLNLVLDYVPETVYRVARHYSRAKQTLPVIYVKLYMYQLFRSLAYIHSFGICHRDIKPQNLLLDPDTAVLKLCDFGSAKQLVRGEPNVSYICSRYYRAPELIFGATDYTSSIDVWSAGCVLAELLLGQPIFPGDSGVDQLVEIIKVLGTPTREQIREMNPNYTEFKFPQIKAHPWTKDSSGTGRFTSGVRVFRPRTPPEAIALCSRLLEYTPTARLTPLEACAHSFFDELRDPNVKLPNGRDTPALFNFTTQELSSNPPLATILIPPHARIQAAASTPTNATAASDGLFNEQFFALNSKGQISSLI

| Compound | IC50 [1] [nM] | IC50 (PKC isoform γ) [nM] | IC50 (PKC isoform α) [nM] | IC50 (PKC isoform β-II) [nM] | GSK-3β Assay Activity, percent at a single concentration ([1]; @ 1 μM) [% @ 1 μM] |
| --- | --- | --- | --- | --- | --- |
| Cn1cc(C2=C(c3cn(-c4cncnc4)c4ccccc34)C(=O)NC2=O)c2ccccc21 [Compound 7, 3-(1-methyl-1H-indol-3-yl)-4-[1-(5-pyrimidinyl)-1H-indol-3-yl]-1H-pyrrole-2,5-dione] | 30 |  |  |  |  |
| O=C1NC(=O)C(c2cn(-c3cccnc3)c3ccccc23)=C1c1cn(CCn2cnnn2)c2ccccc12 [Compound 10, 3-[1-(3-pyridinyl)-1H-indol-3-yl]-4-[1-[2-(1H-tetrazol-1-yl)ethyl]-1H-indol-3-yl]-1H-pyrrole-2,5-dione] | 17 | 4570 | 1010 | 123 |  |
| O=C1NC(=O)C(c2cn(-c3cncnc3)c3ccccc23)=C1c1cn(CCO)c2ccccc12 [Compound 2, 3-[1-(2-hydroxyethyl)-1H-indol-3-yl]-4-[1-(5-pyrimidinyl)-1H-indol-3-yl]-1H-pyrrole-2,5-dione] | 8 | 429 | 228 | 15 |  |
| O=C1NC(=O)C(c2cn(-c3cncnc3)c3ccccc23)=C1c1cn(-c2cccnc2)c2ccccc12 [Compound 11, 3-[1-(3-pyridinyl)-1H-indol-3-yl]-4-[1-(5-pyrimidinyl)-1H-indol-3-yl]-1H-pyrrole-2,5-dione] | 116 | 1440 | 3040 | 60 |  |
| O=C1NC(=O)C(c2cn(-c3cccnc3)c3ccccc23)=C1c1cn(CCCO)c2ccccc12 [Compound 4, 3-[1-(3-hydroxypropyl)-1H-indol-3-yl]-4-[1-(3-pyridinyl)-1H-indol-3-yl]-1H-pyrrole-2,5-dione] | 24 |  |  |  |  |
| O=C1NC(=O)C(c2cn(-c3cnc4ccccc4c3)c3ccccc23)=C1c1cn(CCO)c2ccccc12 [Compound 3, 3-[1-(2-hydroxyethyl)-1H-indol-3-yl]-4-[1-(3-quinolinyl)-1H-indol-3-yl]-1H-pyrrole-2,5-dione] | 31 | 784 | 457 | 23 |  |
| CN(C)CCCn1cc(C2=C(c3cn(-c4csc5ccccc45)c4ccccc34)C(=O)NC2=O)c2ccccc21 [Compound 5, 3-(1-benzo[b]thien-3-yl-1H-indol-3-yl)-4-[1-[3-(dimethylamino)propyl]-1H-indol-3-yl]-1H-pyrrole-2,5-dione] |  |  |  |  | 53 |
| O=C1NC(=O)C(c2cn(-c3cccnc3)c3ccccc23)=C1c1cn(CCO)c2ccccc12 [Compound 1, 3-[1-(2-hydroxyethyl)-1H-indol-3-yl]-4-[1-(3-pyridinyl)-1H-indol-3-yl]-1H-pyrrole-2,5-dione] | 25 | 274 | 64 | 6 |  |
| Cn1cc(C2=C(c3cn(-c4cccnc4)c4ccccc34)C(=O)NC2=O)c2ccccc21 [Compound 8, 3-(1-methyl-1H-indol-3-yl)-4-[1-(3-pyridinyl)-1H-indol-3-yl]-1H-pyrrole-2,5-dione] | 100 |  |  |  |  |
| O=C1NC(=O)C(c2cn(-c3cccnc3)c3ccccc23)=C1c1cn(CCn2ncnn2)c2ccccc12 [Compound 9, 3-[1-(3-pyridinyl)-1H-indol-3-yl]-4-[1-[2-(2H-tetrazol-2-yl)ethyl]-1H-indol-3-yl]-1H-pyrrole-2,5-dione] | 7 | 4950 | 910 | 54 |  |
| CN(C)CCCn1cc(C2=C(c3cn(-c4ccccc4)c4ccccc34)C(=O)NC2=O)c2ccccc21 [Compound 6, 3-[1-[3-(dimethylamino)propyl]-1H-indol-3-yl]-4-(1-phenyl-1H-indol-3-yl)-1H-pyrrole-2,5-dione] |  |  | 58 | 23 |  |
